From patent US20260347310A1, “PHENALKYLAMINES AND METHODS OF MAKING AND USING THE SAME” (GILGAMESH PHARMACEUTICALS, INC., priority 2022, published 2026)
Where two headings read alike, the source gives them in different places.

Assay: Pharmacokinetics in plasma of rats after oral and intravenous dosing; oral bioavailability
Assay type: in vivo, Sprague Dawley rats
Protocol: The pharmacokinetics of disclosed compounds were determined in the plasma of rats after oral and intravenous dosing, with the results presented in Table 13.
Animals. Male Sprague Dawley rats were used in these studies. Animals were randomly assigned to treatment groups and were fasted overnight before oral dosing.
Drugs. The test compound was dissolved in 10% captisol (1) or 10% DMSO and 90% normal saline (2a) and administered intravenously (iv) at 2 mg/kg (1) or 1 mg/kg (2a) or orally (po) at 10 mg/kg (1) or 1 mg/kg (2a), calculated based on freebase, and at a volume of 10 mL/kg body weight for oral administration and 5 mL/kg for IV administration. The compounds were tested as the racemates.
Sample Collection and Bioanalysis. Blood samples were collected through the external jugular vein (via cannulation) at 0.083, 0.25, 0.5, 1, 2, 4, 8, and 24 h post-dose (total 8 time points/rat, 4 rats per administration route). At each time point, ~0.2 mL of blood was withdrawn and transferred into a pre-labeled 0.5-mL micro centrifuge tube containing 4 μL of 200 mM K2EDTA solution as anticoagulant and mixed gently by inverting the tube to facilitate mixing of anticoagulant with the blood. Blood samples were kept on ice until centrifugation. The collected blood samples were centrifuged at 4,000 rpm for 10 min at 4° C. Plasma samples were separated after centrifugation, transferred into pre-labeled tubes, and stored at −70° C. until bioanalysis. For bioanalysis, a 200-μL aliquot of internal standard prepared in acetonitrile (cetirizine, 50 ng/mL) was added (except for blank, where 200 μL of acetonitrile was added) to a 96-well Solvinert filter plate followed by 5 μL of a study plasma sample or spiked calibration standard. The filter plate was then centrifuged for 5 minutes at a speed of 2,500 rpm at 4° C. with a 96-well sample collection plate. Following centrifugation, collected samples were analyzed using a fit-for-purpose LC-MS/MS method, with authentic samples of the analyte used for calibration and identification.
Data Analysis. Pharmacokinetic parameters were estimated using the non-compartmental analysis tool of Phoenix® WinNonlin software (Ver 8.1). The drug concentrations of samples below the lower limit of quantitation (LLOQ) were designated as zero.

CCC(N)Cc1cc(OC)c(CCCCCC(F)(F)F)cc1OC (racemic) [Compound 2a, 1-(2,5-dimethoxy-4-(6,6,6-trifluorohexyl)phenyl)butan-2-amine]
C0 (rat plasma, IV 1 mg/kg, racemate, 10% DMSO and 90% normal saline): 75.9 ng/mL
AUC(0-t) (rat plasma, IV 1 mg/kg, racemate, 10% DMSO and 90% normal saline, read-out: AUC0-last (iv)): 90 ng·h/mL
half-life (rat plasma, IV 1 mg/kg, racemate, 10% DMSO and 90% normal saline, read-out: t1/2 (iv) (converted)): 2.71 h
bioavailability (rat plasma, IV and PO 1 mg/kg, racemate, 10% DMSO and 90% normal saline, read-out: F (absolute oral bioavailability)): 28%
Cmax (rat plasma, PO 1 mg/kg, racemate, 10% DMSO and 90% normal saline, fasted): 29.7 ng/mL
AUC(0-t) (rat plasma, PO 1 mg/kg, racemate, 10% DMSO and 90% normal saline, fasted, read-out: AUC0-last (po)): 25 ng·h/mL
half-life (rat plasma, PO 1 mg/kg, racemate, 10% DMSO and 90% normal saline, fasted, read-out: t1/2 (po) (converted)): 3.07 h
absolute oral bioavailability (F) (in words) (rats, 2a 1 mg/kg iv and 1 mg/kg po, 1 2 mg/kg iv and 10 mg/kg po, racemates): improved absolute oral bioavailability (F), compared to 1
